{
  "source": "patent US4699904A",
  "about": "“Tetrazolyl derivatives of β-lactams useful as elastase inhibitors” (Merck & Co., Inc., priority 1985, dated 1987)",
  "data": [
    {"target": "T1, Human Polymorphonuclear Leukocyte Elastase (Homo sapiens, UniProt P08246)", "T1 construct": "Crude extract of human polymorphonuclear leukocytes (PMN) containing elastase activity; from tissue; host or cells: human polymorphonuclear leukocytes (crude extract)", "T1 sequence (P08246 30-247 limits assumed)": "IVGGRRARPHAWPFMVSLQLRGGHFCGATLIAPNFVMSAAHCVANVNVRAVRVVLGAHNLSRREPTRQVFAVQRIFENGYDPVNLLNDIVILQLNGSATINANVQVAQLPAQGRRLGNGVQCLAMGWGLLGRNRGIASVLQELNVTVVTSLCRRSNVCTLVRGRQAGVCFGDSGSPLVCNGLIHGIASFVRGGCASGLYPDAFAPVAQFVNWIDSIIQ", "experiment": "Inhibition of human polymorphonuclear leukocyte elastase via hydrolysis of N-t-Boc-alanyl-alanyl-prolylalanine-p-nitroanilide", "type": "biochemical", "conditions": "Table I; crude PMN extract, Boc-AAPAN substrate, pH 7.5; 50% inhibition 2 minutes after zero time", "procedure": "(§1) Protocol Enzyme Assays for the Inhibition of Human Polymorphonuclear Leukocyte Elastase Via Hydrolysis of N-t-Boc-alanyl-alanyl-prolylalanine-p-nitroanilide Reagents:\n(§2) 0.05M TES (N-tris[hydroxymethyl]methyl-2-amino-ethanesulfonic acid) Buffer, pH 7.5.\n(§3) 0.2 mM N-t-Boc-alanyl-alanyl-prolyl-alanine-p-nitroanilide (Boc-AAPAN).\n(§4) To prepare substrate, the solid (m.w. 550) was first dissolved in 10.0 ml DMSO. Buffer at pH 7.5 was then added to a final volume of 100 ml.\n(§5) Crude extract of human polymorphonuclear leukocytes (PMN) containing elastase activity.\n(§6) Inhibitors (cephalosporin sulfone esters) to be tested dissolved in DMSO just before use.\n(§7) To 1.0 ml of 0.2 mM Boc-AAPAN in a cuvette, 0.01-0.1 ml of DMSO with or without inhibitor was added. After mixing, a measurement was taken at 410 mμ to detect any spontaneous hydrolysis due to presence of test compound. 0.05 Milliliters of PMN extract was then added and the ΔOD/min at 410 mμ was measured and recorded. Beckman model 35 spectrophotometer was used.\n(§8) Results were reported as ED50, i.e., effective dosage in micrograms per milliliter (μg/ml) for 50% inhibition of the enzyme activity 2 minutes after zero time.\n(§9) The elastase activity in the crude PMN extract may vary from one preparation to another. A control of each new batch is run, and the volume added in the assay procedure is adjusted according to activity.", "units": {"IC50": "µM"}, "values": [
      {"smiles": "CO[C@H]1C(=O)N2C(c3nnn[nH]3)=C(COC(C)=O)CS(=O)(=O)[C@H]12", "note": "[R^1=OCH3, A=CH3COO, R=H, Q^1=H, 3-Acetoxymethyl-7α-methoxy-4-(tetrazol-5-yl)-3-cephem-1,1-dioxide]", "IC50": 58.3},
      {"smiles": "COc1ccc(Cn2nnnc2C2=C(COC(C)=O)CS(=O)(=O)[C@@H]3[C@@H](OC)C(=O)N23)cc1", "note": "[R^1=OCH3, A=CH3COO, R=PMB, Q^1=H, 3-acetoxymethyl-7α-methoxy-4-[1-(p-methoxybenzyl)tetrazol-5-yl]-3-cephem-1,1-dioxide]", "IC50": 1.73},
      {"smiles": "COc1ccc(Cn2nnnc2C2=C(COC(=O)N(C)C)CS(=O)(=O)[C@@H]3[C@@H](OC)C(=O)N23)cc1", "note": "[R^1=OCH3, A=(CH3)2NCOO, R=PMB, Q^1=H]", "IC50": 1.42},
      {"smiles": "CO[C@H]1C(=O)N2C(c3nnn[nH]3)=C(COC(=O)N(C)C)CS(=O)(=O)[C@H]12", "note": "[R^1=OCH3, A=(CH3)2NCOO, R=H, Q^1=H]", "IC50": 5.37},
      {"smiles": "COc1ccc(Cn2nnnc2C2=C(COC(=O)NCc3ccccc3)CS(=O)(=O)[C@@H]3[C@@H](OC)C(=O)N23)cc1", "note": "[R^1=OCH3, A=.phi.CH2NHCOO, R=PMB, Q^1=H, 3-(N-benzyl-carbamoyloxy-methyl)-7α-methoxy-4-(1-p-methoxybenzyl-tetrazol-5-yl)-3-cephem-1,1-dioxide]", "IC50": 0.541},
      {"smiles": "CO[C@H]1C(=O)N2C(c3nnn[nH]3)=C(COC(=O)NCc3ccccc3)CS(=O)(=O)[C@H]12", "note": "[R^1=OCH3, A=.phi.CH2NHCOO, R=H, Q^1=H, 3-(N-Benzyl-carbamoyloxy-methyl)-7α-methoxy-4-(1H-tetrazol-5-yl)-3-cephem-1,1-dioxide]", "IC50": 9.21}
    ]},
    {"target": "T1, Human Polymorphonuclear Leukocyte Elastase", "experiment": "Inhibition of human polymorphonuclear leukocyte elastase via hydrolysis of N-t-Boc-alanyl-alanyl-prolylalanine-p-nitroanilide", "type": "biochemical", "conditions": "Table II; crude PMN extract, Boc-AAPAN substrate, pH 7.5; 50% inhibition 2 minutes after zero time", "procedure": "as §1, §2, §3, §4, §5, §6, §7, §8, §9", "units": {"IC50": "µM"}, "values": [
      {"smiles": "CO[C@H]1C(=O)N2C(c3nnn(Cc4ccccc4C(=O)OC(C)(C)C)n3)=C(COC(C)=O)CS(=O)(=O)[C@H]12", "IC50": 0.562},
      {"smiles": "CO[C@H]1C(=O)N2C(c3nnn(Cc4ccc(C(=O)O)cc4)n3)=C(COC(C)=O)CS(=O)(=O)[C@H]12", "note": "[3-acetoxymethyl-7α-methoxy-4-[2-(-hydroxycarbonylbenzyl)tetrazol-5-yl]-3-cephem-1,1-dioxide]", "IC50": 0.419},
      {"smiles": "CO[C@H]1C(=O)N2C(c3nnn(Cc4ccccc4C(=O)O)n3)=C(COC(C)=O)CS(=O)(=O)[C@H]12", "IC50": 0.628},
      {"smiles": "CO[C@H]1C(=O)N2C(c3nnn(CC(=O)O)n3)=C(COC(C)=O)CS(=O)(=O)[C@H]12", "note": "[Table II: A=CH3COO, R=CH2COOH, Q^1=H]", "IC50": 7.47},
      {"smiles": "CO[C@H]1C(=O)N2C(c3nnn(C)n3)=C(COC(C)=O)CS(=O)(=O)[C@H]12", "note": "[Table II: A=CH3COO, R=CH3, Q^1=H]", "IC50": 0.56},
      {"smiles": "CO[C@H]1C(=O)N2C(c3nnn(Cc4ccc(C(=O)OC(C)(C)C)cc4)n3)=C(COC(C)=O)CS(=O)(=O)[C@H]12", "note": "[3-acetoxymethyl-7α-methoxy-4-[2-(p-t-butoxycarbonylbenzyl)tetrazol-5-yl]-3-cephem-1,1-dioxide]", "IC50": 0.075}
    ]},
    {"target": "T1, Human Polymorphonuclear Leukocyte Elastase", "experiment": "Inhibition of human polymorphonuclear leukocyte elastase via hydrolysis of N-t-Boc-alanyl-alanyl-prolylalanine-p-nitroanilide", "type": "biochemical", "conditions": "Table III, lower part; crude PMN extract, Boc-AAPAN substrate, pH 7.5; 2 minutes after zero time", "procedure": "as §1, §2, §3, §4, §5, §6, §7, §8, §9", "units": {"IC50": "µM"}, "values": [
      {"smiles": "COc1ccc(Cn2nnnc2C2N3C(=O)C(NC(=O)C(F)(F)F)C3SC2(C)C)cc1", "note": "(centres unmarked) [drawing 32, n=0]", "IC50": 21.9},
      {"smiles": "COc1ccc(Cn2nnnc2C2N3C(=O)C(NC(=O)C(F)(F)F)C3S(=O)(=O)C2(C)C)cc1", "note": "(centres unmarked) [drawing 32, n=2]", "IC50": 0.409}
    ]},
    {"target": "T1, Human Polymorphonuclear Leukocyte Elastase", "experiment": "Inhibition of human polymorphonuclear leukocyte elastase via hydrolysis of N-t-Boc-alanyl-alanyl-prolylalanine-p-nitroanilide", "type": "biochemical", "conditions": "Table III, upper part; crude PMN extract, Boc-AAPAN substrate, pH 7.5; 2 minutes after zero time", "procedure": "as §1, §2, §3, §4, §5, §6, §7, §8, §9", "units": {"IC50": "µM"}, "values": [
      {"smiles": "COc1ccc(Cn2nnnc2[C@@H]2N3C(=O)[C@@H](NC(=O)C(F)(F)F)C3S(=O)(=O)C2(C)C)cc1", "note": "(some centres unmarked) [drawing 31, n=2]", "IC50": 1.02},
      {"smiles": "COc1ccc(Cn2nnnc2[C@@H]2N3C(=O)[C@@H](NC(=O)C(F)(F)F)C3[S+]([O-])C2(C)C)cc1", "note": "(some centres unmarked) [drawing 31, n=1]", "IC50": 4.23},
      {"smiles": "COc1ccc(Cn2nnnc2[C@@H]2N3C(=O)[C@@H](NC(=O)C(F)(F)F)C3SC2(C)C)cc1", "note": "(some centres unmarked) [drawing 31, n=0]", "IC50": 4.38}
    ]}
  ]
}
